In patent US10899769B2, “Imidazopiperazinone inhibitors of transcription activating proteins” (Board of Regents, The University of Texas System, priority 2018, dated 2021) one finds IC50 data, which are given here for 21 molecules.

Test [1] concerns the target GST-CBP(1081-1197) bromodomain (Homo sapiens (Human), UniProt Q92793). Briefly: CBP AlphaScreen Assay. Conditions: binding to biotin-H4(1-21) Ac-K5/8/12/16. As for the experimental part: (§1) Specific binding of the CBP or BRD4 bromodomain to the acetylated peptide derived from the H4 histone substrate (tetra acetylated H4(1-21) Ac-K5/8/12/16) was measured in absence or presence of inhibitors. The GST tagged bromodomains of CBP (1081-1197) and BRD4 (49-170) were obtained from BPS Bioscience and binding to the biotinylated H4(1-21) Ac-K5/8/12/16 (AnaSpec. 64989) was assessed via AlphaScreen technology (Perkin Elmer).
(§2) 5 nM GST-CBP(1081-1197) and 20 nM biotin-H4(1-21) Ac-K5/8/12/16 (AnaSpec. 64989) were incubated with varying concentrations of CBP inhibitors in 15 μL of buffer containing 50 mM HEPES 7.5, […], 1 mM TCEP, and 0.003% Tween-20. After 30 minutes incubation at room temperature, 15 μL of detection buffer (BPS Bio. 33006) containing 7 μg/mL of Glutathione AlphaLisa acceptor beads (Perkin Elmer AL109) and 14 μg/mL of Streptavidin donor beads (Perkin Elmer 676002) was then added to the previous mixture. The reaction was incubated for an additional 2 hours at room temperature, and the AlphaScreen signal was quantified using the Envision Multilabel plate reader. As negative control, GST-CBP(1081-1197) was incubated with the non-acetylated biotin-H4(1-21) peptide(AnaSpec. 62555) and in presence of 0.25% of final DMSO concentration.
(§3) the binding of 2.5 nM of BRD4(49-170) to 10 nM biotin-H4(1-21) Ac-K5/8/12/16 (AnaSpec. 64989) was assessed following the same procedure described for the CBP assay. The standard dose response curves were fitted by Genedata Screener software using the variable-slope model: Signal=Signalnegative control+(SignalDMSO control−Signalnegative control)/(1+(IC50/Dose)^Hill slope).
(§4) Only Signal and Dose in the equation were treated as know values.
A general note: Bead proximity is the source of the signal in Alpha formats.

For another test, the target named is BRD4(49-170) bromodomain (Homo sapiens (Human), UniProt O60885). Briefly: BRD4 AlphaScreen Assay. The note with it: binding to biotin-H4(1-21) Ac-K5/8/12/16. As for the experimental part:
as §1, §2, §3, §4

pIC50: −log10 of the molar value.

What is called pIC50 is the negative decadic logarithm of the IC50, by convention in mol/L. A low value points to a high IC50.

Sequence of GST-CBP(1081-1197) bromodomain (Q92793 1081-1197): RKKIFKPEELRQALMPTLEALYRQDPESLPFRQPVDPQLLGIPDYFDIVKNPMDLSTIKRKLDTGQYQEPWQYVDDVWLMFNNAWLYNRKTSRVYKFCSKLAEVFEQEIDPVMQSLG

On to `CCN1Cc2c(N3CCCc4cc(-c5cnn(C)c5)c(C(F)F)cc43)nc(C3CC3)n2CC1=O` [Example 4, 3-Cyclopropyl-1-(7-(difluoromethyl)-6-(1-methyl-1H-pyrazol-4-yl)-3,4-dihydroquinolin-1(2H)-yl)-7-ethyl-7,8-dihydroimidazo[1,5-a]pyrazin-6(5H)-one], for which the results for the pIC50 (in test [1]; on BRD4(49-170) bromodomain) were 8.22 and 4.75, respectively.
The matching figures for `C[C@@H]1CN(C)C(=O)c2c(-c3cccc4nc(-c5cnn(C)c5)c(C(F)F)cc34)nc(C3CCOCC3)n21` [Example 5a, (R)-1-(3-(Difluoromethyl)-2-(1-methyl-1H-pyrazol-4-yl)quinolin-5-yl)-5,7-dimethyl-3-(tetrahydro-2H-pyran-4-yl)-7,8-dihydroimidazo[1,5-a]pyrazin-(5H)-one]: 8.40 and 6.45.
In the case of `C[C@H]1C(=O)N(C)Cc2c(-c3cccc4nc(-c5cnn(C)c5)c(C(F)F)cc34)nc(C3CCOCC3)n21` [Example 5b, (S)-1-(3-(difluoromethyl)-2-(1-methyl-1H-pyrazol-4-yl)quinolin-5-yl)-5,7-dimethyl-3-(tetrahydro-2H-pyran-4-yl)-7,8-dihydroimidazo[1,5-a]pyrazin-6(5H)-one], the values for the pIC50 (in test [1]; at BRD4(49-170) bromodomain) were 5.57 and 4.60, respectively.
Regarding `Cn1cc(-c2cc3cccc(-c4nc(C5CC5)n5c4CN(CCO)C(=O)C5)c3cn2)cn1` [Example 6, 3-Cyclopropyl-7-(2-hydroxyethyl)-1-(3-(1-methyl-1H-pyrazol-4-yl)isoquinolin-8-yl)-7,8-dihydroimidazo[1,5-a]pyrazin-6(5H)-one], the pIC50 is 5.65 in test [1] and 4.60 at BRD4(49-170) bromodomain.
The corresponding values for `Cn1cc(-c2cc3cccc(-c4nc(C5CC5)n5c4CN(CCF)C(=O)C5)c3cn2)cn1` [Example 7, 3-Cyclopropyl-7-(2-fluoroethyl)-1-(3-(1-methyl-1H-pyrazol-4-yl)isoquinolin-8-yl)-7,8-dihydroimidazo[1,5-a]pyrazin-6(5H)-one] are 7.72 and 5.30.
The corresponding values for `CC1C(=O)N(C)Cc2c(-c3cccc4nc(C5=CCOCC5)c(C(F)F)cc34)nc(C3CC3)n21` (stereo not drawn) [Example 9, 3-Cyclopropyl-1-(3-(difluoromethyl)-2-(3,6-dihydro-2H-pyran-4-yl)quinolin-5-yl)-5,7-dimethyl-7,8-dihydroimidazo[1,5-a]pyrazin-6(5H)-one] are 8.52 and 6.44.
As to `CC1C(=O)N(C)Cc2c(-c3cccc4nc(C5CCOCC5)c(C(F)F)cc34)nc(C3CC3)n21` (stereo not drawn) [Example 10, 3-Cyclopropyl-1-(3-(difluoromethyl)-2-(tetrahydro-2H-pyran-4-yl)quinolin-5-yl)-5,7-dimethyl-7,8-dihydroimidazo[1,5-a]pyrazin-6(5H)-one], the pIC50 in test [1] is 8.70; on BRD4(49-170) bromodomain it was 7.29.
In the case of `Cc1cn(-c2nc3cccc(-c4nc(C5CC5)n5c4CN(C)C(=O)C5C)c3cc2C(F)F)cn1` (stereo not drawn) [Example 11, 3-cyclopropyl-1-(3-(difluoromethyl)-2-(4-methyl-1H-imidazol-1-yl)quinolin-5-yl)-5,7-dimethyl-7,8-dihydroimidazo[1,5-a]pyrazin-6(5H)-one], the pIC50 in test [1] was 8.40; at BRD4(49-170) bromodomain, 6.57.
For the molecule `Cc1cn(-c2nc3cccc(-c4nc(C5CC5)n5c4CN(C)C(=O)C5C)c3cc2C(F)F)nn1` (stereo not drawn) [Example 12, 3-cyclopropyl-1-(3-(difluoromethyl)-2-(4-methyl-1H-1,2,3-triazol-1-yl)quinolin-5-yl)-5,7-dimethyl-7,8-dihydroimidazo[1,5-a]pyrazin-6(5H)-one], the values for the pIC50 (in test [1]; on BRD4(49-170) bromodomain) were 8.52 and 6.89, respectively.
The corresponding values for `Cc1ncc(-c2cc3cccc(-c4nc(C5CC5)n5c4CN(C)C(=O)C5C)c3cn2)s1` (stereo not drawn) [Example 13, 3-Cyclopropyl-5,7-dimethyl-1-(3-(2-methylthiazol-5-yl)isoquinolin-8-yl)-7,8-dihydroimidazo[1,5-a]pyrazin-6(5H)-one] are 8.70 and 6.73.
`Cc1cnn(-c2cc3cccc(-c4nc(C5CC5)n5c4CN(C)C(=O)C5C)c3cn2)c1` (stereo not drawn) [Example 14, 3-Cyclopropyl-5,7-dimethyl-1-(3-(4-methyl-1H-pyrazol-1-yl)isoquinolin-8-yl)-7,8-dihydroimidazo[1,5-a]pyrazin-6(5H)-one]: the pIC50 was 8.52 in test [1] and 6.36 on BRD4(49-170) bromodomain.
On to `CC1C(=O)N(C)Cc2c(-c3cccc4cc(-c5nn[nH]n5)ncc34)nc(C3CC3)n21` (stereo not drawn) [Example 17, 1-(3-(2H-Tetrazol-5-yl)isoquinolin-8-yl)-3-cyclopropyl-5,7-dimethyl-7,8-dihydroimidazo[1,5-a]pyrazin-6(5H)-one], for which the pIC50 in test [1] was 8.70; at BRD4(49-170) bromodomain, 5.52.
Regarding `CC1C(=O)N(C)Cc2c(-c3cccc4nc(-c5cnn(C)c5)c(C(F)F)cc34)nc(C3CNC3)n21` (stereo not drawn) [Example 18, 3-(Azetidin-3-yl)-1-(3-(difluoromethyl)-2-(1-methyl-1H-pyrazol-4-yl)quinolin-5-yl)-5,7-dimethyl-7,8-dihydroimidazo[1,5-a]pyrazin-6(5H)-one], the values for the pIC50 (in test [1]; on BRD4(49-170) bromodomain) were 7.30 and 4.76, respectively.
For `CC(=O)N1CC(c2nc(-c3cccc4nc(-c5cnn(C)c5)c(C(F)F)cc34)c3n2C(C)C(=O)N(C)C3)C1` (stereo not drawn) [Example 19, 3-(1-Acetylazetidin-3-yl)-1-(3-(difluoromethyl)-2-(1-methyl-1H-pyrazol-4-yl)quinolin-5-yl)-5,7-dimethyl-7,8-dihydroimidazo[1,5-a]pyrazin-6(5H)-one], the results for the pIC50 (in test [1]; at BRD4(49-170) bromodomain) were 7.39 and 5.23, respectively.
On to `CC1C(=O)N(C)Cc2c(-c3cccc4nc(-c5cnn(C)c5)c(C(F)F)cc34)nc(C3CN(S(C)(=O)=O)C3)n21` (stereo not drawn) [Example 20, 1-(3-(Difluoromethyl)-2-(1-methyl-1H-pyrazol-4-yl)quinolin-5-yl)-5,7-dimethyl-3-(1-(methylsulfonyl)azetidin-3-yl)-7,8-dihydroimidazo[1,5-a]pyrazin-6(5H)-one], for which the values for the pIC50 (in test [1]; on BRD4(49-170) bromodomain) were 7.43 and 5.07, respectively.
For the molecule `CC1C(=O)N(C)Cc2c(-c3cccc4nc(-c5cnn(C)c5)c(C(F)F)cc34)nc(C3CN(CC(F)(F)F)C3)n21` (stereo not drawn) [Example 21, 1-(3-(Difluoromethyl)-2-(1-methyl-1H-pyrazol-4-yl)quinolin-5-yl)-5,7-dimethyl-3-(1-(2,2,2-trifluoroethyl)azetidin-3-yl)-7,8-dihydroimidazo[1,5-a]pyrazin-6(5H)-one], the pIC50 was 7.89 in test [1] and 5.21 on BRD4(49-170) bromodomain.
The corresponding values for `CC1C(=O)N(C)Cc2c(-c3cccc4nc(-c5cnn(C)c5)c(C(F)F)cc34)nc(C3CN(CC(F)F)C3)n21` (stereo not drawn) [Example 22, 3-(1-(2,2-Difluoroethyl)azetidin-3-yl)-1-(3-(difluoromethyl)-2-(1-methyl-1H-pyrazol-4-yl)quinolin-5-yl)-5,7-dimethyl-7,8-dihydroimidazo[1,5-a]pyrazin-6(5H)-one] are 7.96 and 5.36.
As to `COCCN1CC(c2nc(-c3cccc4nc(-c5cnn(C)c5)c(C(F)F)cc34)c3n2C(C)C(=O)N(C)C3)C1` (stereo not drawn) [Example 23, 1-(3-(Difluoromethyl)-2-(1-methyl-1H-pyrazol-4-yl)quinolin-5-yl)-3-(1-(2-methoxyethyl)azetidin-3-yl)-5,7-dimethyl-7,8-dihydroimidazo[1,5-a]pyrazin-6(5H)-one], the values for the pIC50 (in test [1]; on BRD4(49-170) bromodomain) were 7.03 and 4.61, respectively.
With `CNC(=O)N1CC(c2nc(-c3cccc4nc(-c5cnn(C)c5)c(C(F)F)cc34)c3n2C(C)C(=O)N(C)C3)C1` (stereo not drawn) [Example 24, 3-(1-(3-(Difluoromethyl)-2-(1-methyl-1H-pyrazol-4-yl)quinolin-5-yl)-5,7-dimethyl-6-oxo-5,6,7,8-tetrahydroimidazo[1,5-a]pyrazin-3-yl)-N-methylazetidine-1-carboxamide], the results for the pIC50 (in test [1]; on BRD4(49-170) bromodomain) were 7.09 and 5.31, respectively.
Turning to `CC1C(=O)N(C)Cc2c(-c3cccc4nc(-c5cnn(C)c5)c(C(F)F)cc34)nc(C3CN(CCF)C3)n21` (stereo not drawn) [Example 25, 1-(3-(Difluoromethyl)-2-(1-methyl-1H-pyrazol-4-yl)quinolin-5-yl)-3-(1-(2-fluoroethyl)azetidin-3-yl)-5,7-dimethyl-7,8-dihydroimidazo[1,5-a]pyrazin-6(5H)-one], the results for the pIC50 (in test [1]; at BRD4(49-170) bromodomain) were 7.59 and 4.94, respectively.
The corresponding values for `CN1Cc2c(-c3cccc4nc(-c5cnn(C)c5)c(C(F)F)cc34)nc(C3CCOCC3)n2C(F)C1=O` (stereo not drawn) [Example 27, 1-(3-(Difluoromethyl)-2-(1-methyl-1H-pyrazol-4-yl)quinolin-5-yl)-5-fluoro-7-methyl-3-(tetrahydro-2H-pyran-4-yl)-7,8-dihydroimidazo[1,5-a]pyrazin-6(5H)-one] are 7.37 and 5.05.
